The subject of this test is mice stressed by MCS. Description: forced swimming test after moderate chronic stress (MCS) protocol. The test is classed as in vivo, mice (male BALB/c ByJIco). The conditions noted are these: β3 agonist 1 mg/kg; for Percentage of time (immobile time of stressed animals relative to the unstressed animals): forced swimming test on day 50, 1 intraperitoneal injection per day from day 15 to day 50, fluoxetine hydrochloride 3 mg/kg; for Immobile time: forced swimming test on day 50, measured over 5 minutes, 1 intraperitoneal injection per day from day 15 to day 50, fluoxetine hydrochloride 3 mg/kg; for effect of repeated administration on immobile time (in words): forced swimming test on day 50, repeated intraperitoneal administration day 15 to day 50, fluoxetine 3 mg/kg. The procedure:
The antidepressant effects of the combination according to the invention were evaluated in mice using the moderate chronic stress (MCS) protocol. This test was developed on rats by Willner (P. Willner, Neuroscience and Biobehavioral Review, 1992, 16, 525-34) and adapted to mice by Kopp et al. (C. Kopp, Behavioral Pharmacology, 1999, 10, 73-83).
Similarities between the depressive state in man and the effect of moderate chronic stress in mice were established. The emotivity of mice stressed by MCS was evaluated in the forced swimming test.
The MCS is performed in the following manner:
Male BALB/c ByJIco mice (Iffa Credo Lyons, France) 8 weeks old are placed in individual experiment cages (26×20×14 cm), provided with food and water ad libitum, at a controlled temperature of 22±1° C.
In the context of the protocol, the mice are subjected to a series of stresses such as forced bathing, food and/or water deprivation, housing in cages containing wet sawdust, permutation of the day/night cycle, maintenance under constant illumination or in darkness, each of these restrictions possibly lasting from 2 hours to 24 hours.
A first group of control animals is not subjected to the MCS (group 1—unstressed).
The animals subjected to the MCS are divided into 4 groups on day 15: • Group 2 (saline stress) consists of control animals receiving one intraperitoneal injection per day of physiological fluid. • Group 3 (fluoxetine stress) receives 1 intraperitoneal injection per day of fluoxetine hydrochloride at a rate of 3 mg/kg. • Group 4 (β3 agonist stress) receives 1 intraperitoneal injection per day of ethyl [(7S)-7(2R)-2-(3-chlorophenyl)-2-hydroxyethylamino-5,6,7,8-tetrahydronaphthalen-2-yloxy]acetate hydrochloride at a rate of 1 mg/kg. • Group 5 (fluoxetine+β3 agonist stress) receives 1 intraperitoneal injection per day of a solution containing fluoxetine hydrochloride (3 mg/kg) and ethyl [(7S)-7(2R)-2-(3-chlorophenyl)-2-hydroxyethylamino-5,6,7,8-tetrahydro-naphthalen-2-yloxy]acetate hydrochloride (1 mg/kg).
The injections are performed from day 15 to day 50.
On day 50, each group is subjected to the forced swimming test. […] The immobile time is measured over a period of 5 minutes.

Molecules are shown by their SMILES.

The values below come from patent US20080182899A1, “ASSOCIATION OF BETA3 RECEPTOR AGONIST AND MONOAMINE REUPTAKE INHIBITORS, PHARMACEUTICAL COMPOSITION AND THERAPEUTIC USE THEREOF” (SANOFI-AVENTIS, priority 2005, published 2008).

As for `CNCCC(Oc1ccc(C(F)(F)F)cc1)c1ccccc1` (stereo not drawn) [fluoxetine], the “Percentage of time (immobile time of stressed animals relative to the unstressed animals)” value was “+21.5%”, the “Immobile time” value was 178.4 s and the “effect of repeated administration on immobile time (in words)” value is “does not significantly modify this parameter”.

For `CCOC(=O)COc1ccc2c(c1)C[C@@H](NC[C@H](O)c1cccc(Cl)c1)CC2.Cl` [β3 agonist, ethyl [(7S)-7(2R)-2-(3-chlorophenyl)-2-hydroxyethylamino-5,6,7,8-tetrahydronaphthalen-2-yloxy]acetate hydrochloride], the “Percentage of time (immobile time of stressed animals relative to the unstressed animals)” value was “+25.1%”, the “Immobile time” value came out at 182.0 s and the “effect of repeated administration on immobile time (in words)” value is “does not significantly modify this parameter”.
